In the NIST ThermoML archive (doi:10.1021/acs.jced.7b00717):
Numbers after ± are expanded uncertainties.

Experiments:
[1] = xn = mol fraction of the nth substance listed; settings: Liquid, dynamic ligfht scattering
[2] = refractive index (other wavelength) (dimensionless); xn = mol fraction of the nth substance listed; settings: Liquid, Wavelength=532 nm

OCC(O)CO [glycerol] + O
[1]
Settings | binary diffusion coefficient [m2/s]
322.99 K, x1 = 0.5 | 2.54e-10
323.07 K, x1 = 0.699 | 1.4e-10
323.15 K, x1 = 0.299 | 5.6e-10
347.98 K, x1 = 0.5 | 5.69e-10
348.19 K, x1 = 0.299 | 1.04e-09
351.63 K, x1 = 0.699 | 3.69e-10
372.92 K, x1 = 0.699 | 6.93e-10
373.17 K, x1 = 0.5 | 1.04e-09
373.3 K, x1 = 0.299 | 1.73e-09
397.7 K, x1 = 0.699 | 1.45e-09
398.05 K, x1 = 0.299 | 2.84e-09
398.12 K, x1 = 0.5 | 1.9e-09
422.61 K, x1 = 0.299 | 4.12e-09
423.15 K, x1 = 0.5 | 2.87e-09
448.21 K, x1 = 0.5 | 4.8e-09

[2]
Settings | refractive index
295.65 K, Standard Abbe refractometry, x1 = 0.299 | 1.422 ± 0.001
296.15 K, beam displacement method, x1 = 0.699 | 1.461 ± 0.005
314.15 K, Standard Abbe refractometry, x1 = 0.299 | 1.42 ± 0.001
322.99 K, beam displacement method, x1 = 0.5 | 1.436 ± 0.005
323.15 K, beam displacement method, x1 = 0.299 | 1.417 ± 0.005
331.65 K, Standard Abbe refractometry, x1 = 0.299 | 1.415 ± 0.001
347.96 K, beam displacement method, x1 = 0.5 | 1.43 ± 0.005
348.15 K, beam displacement method, x1 = 0.299 | 1.411 ± 0.005
348.45 K, beam displacement method, x1 = 0.699 | 1.445 ± 0.005
373.05 K, beam displacement method, x1 = 0.699 | 1.438 ± 0.005
373.16 K, beam displacement method, x1 = 0.299 | 1.403 ± 0.005
373.23 K, beam displacement method, x1 = 0.5 | 1.423 ± 0.005
398.11 K, beam displacement method, x1 = 0.5 | 1.417 ± 0.005
398.15 K, beam displacement method, x1 = 0.299 | 1.396 ± 0.005
398.25 K, beam displacement method, x1 = 0.699 | 1.431 ± 0.005
421.85 K, beam displacement method, x1 = 0.699 | 1.424 ± 0.005
423.15 K, beam displacement method, x1 = 0.5 | 1.409 ± 0.005
